Laboratory results: US20230357253A1, “AGONISTS OF STIMULATOR OF INTERFERON GENES STING” (THE SCRIPPS RESEARCH INSTITUTE, priority 2020, published 2023)

What was measured:
human STING protein = human STING protein (Homo sapiens (Human), UniProt Q86WV6); assay: WT STING binding assay (HTRF, competition with labeled 2′3′cGAMP); details: recombinant 6×His-tagged human STING, three hours at room temperature
Protocol: WT STING binding assay (Cisbio, Catalog #64BDSTGPEH). […] Upon proximity of the two dyes, the excitation of the donor by the flash lamp on the PHERAstar FSX plate reader triggers a Fluorescence Resonance Energy Transfer (FRET) towards the acceptor, which in turn fluoresces at 665 nm. To assess the ability of the synthetic small molecule STING ligands to bind to human STING, a competitive assay format was applied. A 10-point titration of each of the synthetic ligands in 5 uL were transferred into a 384 well plate, followed by 20 uL of assay buffer containing the 6×His-tagged human STING protein and labeled 2′3′cGAMP ligand and incubated for three hours at room temperature. The raw values obtained from the PHERAstar were used to calculate the reported IC50 values (the signal is inversely proportional to the binding of the synthetic ligand) through curve fitting in Genedata. The percent inhibition was calculated based upon the maximal amount of binding by synthetic compound versus the maximum binding of unlabeled 2′3′ cGAMP which was used as a control in each assay.

THP-1 Lucia ISG cells = assay: ISRE-luciferase assay (ISG-LUC activation); assay type: cell-based; details: Homo sapiens, THP1-Lucia ISG, 24 hours, luciferase reporter
Summary of the method: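 THP-1 Lucia ISG cells at 5×10^5 cells/ml in 2% FBS medium were treated with test article or DMSO vehicle for 24 h. Secreted luciferase was read by luminescence and normalized to vehicle, reported as RLU.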

Chain of human STING protein (Q86WV6 whole entry): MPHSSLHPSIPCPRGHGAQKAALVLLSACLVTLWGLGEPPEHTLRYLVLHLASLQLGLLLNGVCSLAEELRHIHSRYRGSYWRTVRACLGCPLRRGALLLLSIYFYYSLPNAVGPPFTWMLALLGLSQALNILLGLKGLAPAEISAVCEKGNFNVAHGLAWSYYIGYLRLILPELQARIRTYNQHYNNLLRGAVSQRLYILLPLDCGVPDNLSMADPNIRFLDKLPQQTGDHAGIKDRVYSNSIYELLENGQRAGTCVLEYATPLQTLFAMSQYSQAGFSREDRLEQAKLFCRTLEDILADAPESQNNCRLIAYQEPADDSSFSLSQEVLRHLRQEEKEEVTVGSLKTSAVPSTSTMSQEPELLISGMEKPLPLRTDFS

| SMILES | IC50 (human STING protein) | EC50 (THP-1 Lucia ISG cells) |
| --- | --- | --- |
| COc1cc(C(=O)O)c(NC(=O)c2ccc3nnnn3n2)cc1OCCc1ccc(C(=O)O)c(NC(=O)c2ccc(-n3ccnc3)nn2)c1 [Compound 91] | 100 to 1000 nM | > 5000 nM |
| O=C(Nc1cc(CCOc2cc(NC(=O)c3ccc4nnnn4n3)c(C(=O)O)cc2F)ccc1C(=O)O)c1ccc(-n2ccnc2)nn1 [Compound 92] | 10 to 100 nM | 50 to 500 nM |
| O=C(Nc1cc(CCCc2cc(C(=O)O)c(NC(=O)c3ccc4nnnn4n3)cc2Cl)ccc1C(=O)O)c1ccc(-n2ccnc2)nn1 [Compound 93] | 10 to 100 nM | 50 to 500 nM |
| COc1cc(C(=O)O)c(NC(=O)c2ccc3nnnn3n2)cc1OCCCCOc1cc(NC(=O)c2ccc(-n3ccnc3)nn2)c(C(=O)O)cc1F [Compound 95] | 10 to 100 nM | 500 to 5000 nM |
| COc1cc(NC(=O)c2ccc3nnnn3n2)c(C(=O)O)cc1CCCc1cc(NC(=O)c2ccc(-n3ccnc3)nn2)c(C(=O)O)cc1F [Compound 96] | 10 to 100 nM | 50 to 500 nM |
| O=C(Nc1cc(OCCc2cc(NC(=O)c3ccc4nnnn4n3)c(C(=O)O)cc2F)ccc1C(=O)O)c1ccc(-n2ccnc2)nn1 [Compound 97] | 100 to 1000 nM | 500 to 5000 nM |
| O=C(Nc1cc(CCCCc2cc(NC(=O)c3ccc4nnnn4n3)c(C(=O)O)cc2F)c(F)cc1C(=O)O)c1ccc(-n2ccnc2)nn1 [Compound 98] | 10 to 100 nM | 50 to 500 nM |
| COc1cc(C(=O)O)c(NC(=O)c2ccc(-n3ccnc3)nn2)cc1CCOc1cc(NC(=O)c2ccc3nnnn3n2)c(C(=O)O)cc1F [Compound 99] | 100 to 1000 nM | 500 to 5000 nM |
| COc1cc(C(=O)O)c(NC(=O)c2ccc3nnnn3n2)cc1CCOc1cc(NC(=O)c2ccc(-n3ccnc3)nn2)c(C(=O)O)cc1F [Compound 100] | 100 to 1000 nM | 50 to 500 nM |
| COc1cc(NC(=O)c2ccc(-n3ccnc3)nn2)c(C(=O)O)cc1CCCc1cc(NC(=O)c2ccc3nnnn3n2)c(C(=O)O)cc1F [Compound 101] | 100 to 1000 nM | 50 to 500 nM |
| COc1cc(C(=O)O)c(NC(=O)c2ccc3nnnn3n2)cc1OCCc1cc(NC(=O)c2ccc(-n3ccnc3)nn2)c(C(=O)O)cc1F [Compound 102] | 100 to 1000 nM | 500 to 5000 nM |
| COc1cc(NC(=O)c2ccc3nnnn3n2)c(C(=O)O)cc1CCOc1cc(NC(=O)c2ccc(-n3ccnc3)nn2)c(C(=O)O)cc1F [Compound 103] | 100 to 1000 nM | 500 to 5000 nM |
| O=C(Nc1cc(CCOc2cc(NC(=O)c3ccc4nnnn4n3)c(C(=O)O)cc2Cl)ccc1C(=O)O)c1ccc(-n2ccnc2)nn1 [Compound 104] | 10 to 100 nM | 50 to 500 nM |
| O=C(Nc1cc(CCCc2ccc(C(=O)O)c(NC(=O)c3ccc4nnnn4n3)c2)c(Cl)cc1C(=O)O)c1ccc(-n2ccnc2)nn1 [Compound 105] | 10 to 100 nM | 500 to 5000 nM |
| COc1cc(C(=O)O)c(NC(=O)c2ccc(-n3ccnc3)nn2)cc1CCCc1cc(NC(=O)c2ccc3nnnn3n2)c(C(=O)O)cc1F [Compound 107] | 10 to 100 nM | 50 to 500 nM |
| COc1cc(C(=O)O)c(NC(=O)c2ccc(-n3ccnc3)nn2)cc1OCCc1cc(NC(=O)c2ccc3nnnn3n2)c(C(=O)O)cc1Cl [Compound 109] | 100 to 1000 nM | 500 to 5000 nM |
| COc1cc(C(=O)O)c(NC(=O)c2ccc(-n3ccnc3)nn2)cc1OCCc1cc(NC(=O)c2ccc3nnnn3n2)c(C(=O)O)cc1F [Compound 110] | 100 to 1000 nM | > 5000 nM |
| O=C(Nc1cc(CCCc2cc(NC(=O)c3ccc(-n4ccnc4)nn3)c(C(=O)O)cc2F)c(F)cc1C(=O)O)c1cccnn1 [Compound 111] | 10 to 100 nM | 50 to 500 nM |
| O=C(Nc1cc(CCCc2cnc(C(=O)O)c(NC(=O)c3ccc4nnnn4n3)c2)c(F)cc1C(=O)O)c1ccc(-n2ccnc2)nn1 [Compound 112] | 10 to 100 nM | 500 to 5000 nM |
| O=C(Nc1cc(OCCc2cc(NC(=O)c3ccc4nnnn4n3)c(C(=O)O)cc2Cl)ccc1C(=O)O)c1ccc(-n2ccnc2)nn1 [Compound 114] | 100 to 1000 nM | 50 to 500 nM |
| COc1cc(C(=O)O)c(NC(=O)c2ccc3nnnn3n2)cc1CCCc1cc(NC(=O)c2ccc(-n3ccnc3)nn2)c(C(=O)O)cc1F [Compound 115] | 10 to 100 nM | 50 to 500 nM |

| SMILES | IC50 (human STING protein) | EC50 (THP-1 Lucia ISG cells) |
| --- | --- | --- |
| O=C(Nc1cc(OCCc2cc(NC(=O)c3ccc4nnnn4n3)c(C(=O)O)cc2F)c(F)cc1C(=O)O)c1ccc(-n2ccnc2)nn1 [Compound 116] | 10 to 100 nM | 50 to 500 nM |
| O=C(Nc1cc(CCCc2cc(NC(=O)c3ccc4cnnn4n3)c(C(=O)O)cc2F)c(F)cc1C(=O)O)c1ccc(-n2ccnc2)nn1 [Compound 117] | 10 to 100 nM | 500 to 5000 nM |
| O=C(Nc1cc(CCOc2c(F)cc(C(=O)O)c(NC(=O)c3ccc4nnnn4n3)c2F)c(F)cc1C(=O)O)c1ccc(-n2ccnc2)nn1 [Compound 118] | 100 to 1000 nM | 500 to 5000 nM |
| O=C(Nc1cc(CCOc2cc(NC(=O)c3ccc(-n4ccnc4)nn3)c(C(=O)O)cc2F)c(F)cc1C(=O)O)c1ccc(-n2ccnc2)nn1 [Compound 119] | 10 to 100 nM | 50 to 500 nM |
| O=C(Nc1cc(CCOc2c(F)cc(C(=O)O)c(NC(=O)c3ccc(-n4ccnc4)nn3)c2F)c(F)cc1C(=O)O)c1ccc(-n2ccnc2)nn1 [Compound 123] | 100 to 1000 nM | 50 to 500 nM |
| COc1cc(C(=O)O)c(NC(=O)c2ccc(-n3ccnc3)nn2)cc1CSCc1cc(NC(=O)c2ccc(-n3ccnc3)nn2)c(C(=O)O)cc1F [Compound 124] | 10 to 100 nM | 50 to 500 nM |
| COc1cc(C(=O)O)c(NC(=O)c2ccc(-n3ccnc3)nn2)cc1OCCc1cc(C(=O)O)c(NC(=O)c2ccc3nnnn3n2)cc1C#N [Compound 128] | 10 to 100 nM | 50 to 500 nM |
| O=C(Nc1cc(OCCc2cc(NC(=O)c3ccc(-n4ccnc4)nn3)c(C(=O)O)cc2Cl)c(F)cc1C(=O)O)c1ccc(-n2ccnc2)nn1 [Compound 129] | 10 to 100 nM | 50 to 500 nM |
| NC(=O)c1nnn2nc(C(=O)Nc3cc(CCOc4cc(NC(=O)c5ccc(-n6ccnc6)nn5)c(C(=O)O)cc4F)c(F)cc3C(=O)O)ccc12 [Compound 135] | 10 to 100 nM | 50 to 500 nM |
| N#Cc1nnn2nc(C(=O)Nc3cc(CCOc4cc(NC(=O)c5ccc(-n6ccnc6)nn5)c(C(=O)O)cc4F)c(F)cc3C(=O)O)ccc12 [Compound 136] | 100 to 1000 nM | > 5000 nM |
| Nc1cc(C(=O)Nc2cc(OCCc3cc(NC(=O)c4ccc(-n5ccnc5)nn4)c(C(=O)O)cc3F)c(F)cc2C(=O)O)nn2nnnc12 [Compound 137] | 10 to 100 nM | 50 to 500 nM |
| COC(=O)c1cc(F)c(CCOc2cc(NC(=O)c3ccc(-n4ccnc4)nn3)c(C(=O)O)cc2F)cc1NC(=O)c1ccc(-n2ccnc2)nn1 [Compound 140] | 100 to 1000 nM | < 50 nM |
| COc1cc(NC(=O)c2ccc(-n3ccnc3)nn2)c(C(=O)O)cc1OCCc1cc(NC(=O)c2ccc(-n3ccnc3)nn2)c(C(=O)O)cc1F [Compound 142] | 10 to 100 nM | 50 to 500 nM |
| O=C(Nc1cc(CS(=O)(=O)Cc2cc(NC(=O)c3ccc(-n4ccnc4)nn3)c(C(=O)O)cc2F)c(F)cc1C(=O)O)c1ccc(-n2ccnc2)nn1 [Compound 143] | 10 to 100 nM | > 5000 nM |
| COc1cc(NC(=O)c2ccc3nnnn3n2)c(C(=O)O)cc1OCCc1cc(NC(=O)c2ccc(-n3ccnc3)nn2)c(C(=O)O)cc1F [Compound 147] | 100 to 1000 nM | > 5000 nM |
| O=C(Nc1cc(CCOCc2cc(NC(=O)c3ccc(-n4ccnc4)nn3)c(C(=O)O)cc2F)c(F)cc1C(=O)O)c1ccc(-n2ccnc2)nn1 [Compound 149] | 10 to 100 nM | 500 to 5000 nM |
| O=C(Nc1cc(COCc2cc(NC(=O)c3ccc(-n4ccnc4)nn3)c(C(=O)O)cc2F)c(F)cc1C(=O)O)c1ccc(-n2ccnc2)nn1 [Compound 151] | 10 to 100 nM | 50 to 500 nM |
| O=C(Nc1cc(OCCc2cc(NC(=O)c3ccc(-n4ccnc4)nn3)c(C(O)C(=O)O)cc2F)c(F)cc1C(=O)O)c1ccc(-n2ccnc2)nn1 (stereo not shown) [Compound 154] | 100 to 1000 nM | 500 to 5000 nM |
| O=C(Nc1cc(CCOc2cc(NC(=O)c3ccc4nnnn4n3)c(C(=O)O)cc2F)c(F)cc1C(=O)O)c1ccc2nnnn2n1 [Compound 160] | 100 to 1000 nM | > 5000 nM |
| O=C(Nc1cc(CCCc2cc(NC(=O)c3ccc4nnnn4n3)c(C(=O)O)cc2F)c(F)cc1C(=O)O)c1ccc2nnnn2n1 [Compound 161] | 100 to 1000 nM | > 5000 nM |
